Source: US4767770A, “Method of inhibiting aromatase” (Eli Lilly and Company, priority 1984, dated 1988)
Read-outs that look alike come from different tables or passages of the source. One block for each compound: values may come before it.

How the values were obtained:
[1] = molecular target: T1, aromatase (Rattus norvegicus, UniProt P22443); test: biochemical
T1 sequence (P22443 1-508): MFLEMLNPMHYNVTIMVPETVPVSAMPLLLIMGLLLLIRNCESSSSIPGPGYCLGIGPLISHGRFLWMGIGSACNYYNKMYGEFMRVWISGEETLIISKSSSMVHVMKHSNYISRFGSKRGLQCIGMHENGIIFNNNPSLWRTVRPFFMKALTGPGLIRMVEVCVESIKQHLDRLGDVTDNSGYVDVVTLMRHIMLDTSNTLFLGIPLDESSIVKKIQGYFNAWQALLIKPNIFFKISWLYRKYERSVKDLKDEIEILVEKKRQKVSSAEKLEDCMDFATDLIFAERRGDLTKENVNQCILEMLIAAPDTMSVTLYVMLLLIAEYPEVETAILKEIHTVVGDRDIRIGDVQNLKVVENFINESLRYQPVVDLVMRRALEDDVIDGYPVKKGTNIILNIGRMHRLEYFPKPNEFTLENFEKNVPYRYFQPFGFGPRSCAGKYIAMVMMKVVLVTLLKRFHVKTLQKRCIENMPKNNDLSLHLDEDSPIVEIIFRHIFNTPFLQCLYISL
Protocol: In this test system, ovarian microsomes are obtained from rats treated with pregnant mares serum gonadotropin. Test compounds are added to reaction vials containing 0.1 μM 4-androstene-3,17-dione, 100,000 dpm 1,2[^3 H]-androstenedione, the microsomes and a NADPH generating system. The concentrations of the inhibitors tested ranged between 0.005 and 10 μM.

[2] = tested on: estrogen synthesis (aromatization); uterus; test: Estrogen Synthesis Inhibition in Rats: uterine weight of testosterone propionate-treated immature rats; type: in vivo, immature female Wistar rats; conditions: 7 days
Protocol: Immature female Wistar rats (45-55 grams) were divided into control and test groups of 2-8 animals each. Test compounds were administered for seven days as a component of the diet. Control animals received diet without the test compound. Beginning on the fourth day of the test, all animals treated with the test compound and one half of the control animals were given a subcutaneous injection of 1.0 mg of testosterone propionate in corn oil. The remaining control animals received only an equivalent volume of corn oil. On the seventh day of the test, rats treated with testosterone propionate were injected subcutaneously with 100 μCi of [^3 H]-testosterone in 50 μl of 3:1 (v/v) saline-ethanol.
After two hours, the animals were killed by decapitation. Uteri were isolated, trimmed of extraneous connective tissue, and weighed. […] In the control animals treated with testosterone propionate, estrogens produced by aromatization stimulated the uterus resulting in an increase in weight.
*ppm in feed. 300 ppm corresponds to approximately 30 mg/kg/day; 200 ppm
corresponds to approximately 20 mg/kg/day; 30 ppm corresponds to
approximately 3 mg/kg/day.

[3] = tested on: estrogen synthesis (ovarian estradiol, estrone, estriol); test: Estrogen Synthesis Inhibition in Rats: ovarian steroid concentration after [3H]-testosterone; type: in vivo, immature female Wistar rats; conditions: 7 days
Protocol: Test compounds were administered for seven days as a component of the diet. Control animals received diet without the test compound. Beginning on the fourth day of the test, all animals treated with the test compound and one half of the control animals were given a subcutaneous injection of 1.0 mg of testosterone propionate in corn oil. The remaining control animals received only an equivalent volume of corn oil.
The ovarian steroids were extracted with 1.5 ml of 9:1 (v/v) toluene/ethanol to which had been added 25 to 100 mcg each of unlabelled estradiol, estriol, and estrone, and approximately 1000 dpm of [^14 C]-estradiol. The samples were vortexed, centrifuged at 500×g for 10 minutes, and the organic phase was transferred to a conical vial. Two additional extractions were performed on the residue in the same way. The pooled organic extracts were evaporated for subsequent thin-layer chromatography.
Ovarian proteins were precipitated by the addition of 5.0 ml of ethanol to the remaining aqueous phase. After an overnight incubation at 4° C., the samples were centrifuged at 1500×g for 10 minutes. The supernatant was discarded and the pellet was dissolved in 0.3N potassium hydroxide.
The organic residue from each above extraction was redissolved in 9:1 (v/v) dichloromethane/methanol. The solution of each sample was applied to separate silica gel thin layer chromatography plates which contained a fluorescent indicator. The plates were developed in the first dimension with 160:38:1.5:0.5 (v/v/v/v) dichloromethane/ethyl acetate/methanol/acetic acid to within 3 cm of the top of the plate. After air-drying, the plate was developed in the second dimension with 180:19:1 (v/v/v) dichloromethane/methanol/ammonium hydroxide.
The spots were scraped from the plate using a glass wool plugged Pasteur pipet attached to a vacuum line. The steroids were eluted directly into scintillation vials by the addition of 0.2 ml of dichloromethane followed by two washes each of 2.0 ml of methanol. The organic solvent was evaporated and 10.0 ml of scintillation fluid (Beckman Ready Solv-NA) was added to the vials. Samples were analyzed by liquid scintillation spectrometry. Corrections were made based on the recoveries of the [^14 C]-steroid. Steroid concentrations are expressed as femtomoles per milligram protein.

[4] = tested on: DMBA-induced mammary tumors; test: DMBA-induced Mammary Tumor Inhibition; type: in vivo, female Sprague-Dawley rats; conditions: Test II, 300 ppm in diet (approx. 30 mg/kg/day), 4 weeks
Protocol: Mammary tumors were produced in female Sprague-Dawley rats which were 50-60 days old by the gavage administration of 20 mg of 7,12-dimethylbenz[a]anthracene (DMBA). About six weeks after DMBA administration, the mammary glands were palpated at weekly intervals for the appearance of tumors. Whenever one or more tumors appeared and were measurable in an animal, that animal was selected for experimentation. […] Each control and test group contained 8 animals. The test compound was administered mixed into the food at a concentration of 300 ppm (corresponding to an appropriate daily dose of 30 mg/kg). Every experiment included a group of control rats having tumors and were given food without the compound admixed. […] The area of each tumor was calculated by multiplying the shortest and longest diameters of the tumor. The treatment and measurement of animals continued for 4-5 weeks at which time the final areas of the tumors were determined. For each compound (and control) at each dose level, the change in the mean tumor area was determined.
*dosed in the diet. 300 ppm corresponds to approximately 30 mg/kg/day.

[5] = Test IV, 200 ppm in feed (approx. 20 mg/kg/day), testosterone-treated control 213.5
[6] = Test IV, 200 ppm in feed (approx. 20 mg/kg/day), testosterone-treated control 0.14
[7] = Test IV, 200 ppm in feed (approx. 20 mg/kg/day), testosterone-treated control 0.24
[8] = Test IV, 200 ppm in feed (approx. 20 mg/kg/day), testosterone-treated control 1.98
[9] = rat ovarian microsomes, substrate (androstenedione) 0.1 μM

SMILES: c1ccc(N(Cc2cccnc2)C2=NCCS2)cc1 [N--(4,5-dihydro-2-thiazolyl)-N--phenyl-3-pyridinemethanamine]
EC50 [1]: 460 nM

SMILES: CC(c1ccc(Cl)cc1)N(Cc1cccnc1)C1=NCCS1 (centres unmarked) [N--[1-(4-chlorophenyl)ethyl]-N--(4,5-dihydro-2-thiazolyl)-3-pyridinemethanamine]
EC50 [1]: 48 nM | Mean Uterine Weight [2, 5]: 185.8 mg | Mean Steroid Concentration, estriol [3, 6]: 0.04 femtomoles per milligram of protein | Mean Steroid Concentration, estrone [3, 7]: 0.13 femtomoles per milligram of protein | Mean Steroid Concentration, estradiol [3, 8]: 1.01 femtomoles per milligram of protein

EC50 [1, 9]: 3200 nM
SMILES: CSc1ccc(N(Cc2cccnc2)C2=NCCS2)cc1 [N--(4,5-dihydro-2-thiazolyl)-N--[4-(methylthio)phenyl]-3-pyridinemethanamine]

SMILES: Clc1ccc(N(Cc2cnccn2)C2=NCCS2)cc1 [N--(4-chlorophenyl)-N--(4,5-dihydro-2-thiazolyl)-2-pyrazinemethanamine]
EC50 [1]: 3130 nM

EC50 [1, 9]: 440 nM
SMILES: Cc1cc(Cl)ccc1N(Cc1cccnc1)C1=NCCS1 [N--(4-chloro-2-methylphenyl)-N--(4,5-dihydro-2-thiazolyl)-3-pyridinemethanamine]

SMILES: CC1CSC(N(Cc2cccnc2)c2ccc(Cl)cc2)=N1 (centres unmarked) [N--(4-chlorophenyl)-N--(4,5-dihydro-4-methyl-2-thiazolyl)-3-pyridinemethanamine]
Mean Uterine Weight ([2]; Test III, 30 ppm in feed (approx. 3 mg/kg/day), testosterone-treated control 220.0): 225.5 mg | Mean Uterine Weight ([2]; Test III, 300 ppm in feed (approx. 30 mg/kg/day), testosterone-treated control 220.0): 187.6 mg | Mean Steroid Concentration, estrone ([3]; Test III, 30 ppm in feed (approx. 3 mg/kg/day), testosterone-treated control 1.02): 1.14 femtomoles per milligram of protein | Mean Steroid Concentration, estradiol ([3]; Test III, 30 ppm in feed (approx. 3 mg/kg/day), testosterone-treated control 1.31): 2.40 femtomoles per milligram of protein | Mean Steroid Concentration, estriol ([3]; Test III, 30 ppm in feed (approx. 3 mg/kg/day), testosterone-treated control 1.32): 1.56 femtomoles per milligram of protein | Mean Steroid Concentration, estrone ([3]; Test III, 300 ppm in feed (approx. 30 mg/kg/day), testosterone-treated control 1.02): 0.62 femtomoles per milligram of protein | Mean Steroid Concentration, estradiol ([3]; Test III, 300 ppm in feed (approx. 30 mg/kg/day), testosterone-treated control 1.31): 0.95 femtomoles per milligram of protein | Mean Steroid Concentration, estriol ([3]; Test III, 300 ppm in feed (approx. 30 mg/kg/day), testosterone-treated control 1.32): 0.37 femtomoles per milligram of protein

SMILES: Clc1ccc(CN(Cc2cccnc2)C2=NCCS2)c(Cl)c1 [N--(4,5-dihydro-2-thiazolyl)-N--(2,4-dichlorobenzyl)-3-pyridinemethanamine]
EC50 [1]: 118 nM

SMILES: Clc1ccc(N(Cc2cccnc2)C2=NCCCS2)cc1 [N--(4-chlorophenyl)-5,6-dihydro-N--(3-pyridylmethyl)-4H--1,3-thiazin-2-amine]
EC50 [1]: 72 nM | Mean Uterine Weight [2, 5]: 193.0 mg | Mean Steroid Concentration, estriol [3, 6]: 0.04 femtomoles per milligram of protein | Mean Steroid Concentration, estrone [3, 7]: 0.11 femtomoles per milligram of protein | Mean Steroid Concentration, estradiol [3, 8]: 1.54 femtomoles per milligram of protein

SMILES: Brc1ccc(N(Cc2cccnc2)C2=NCCS2)cc1 [N--(4,5-dihydro-2-thiazolyl)-N--(4-bromophenyl)-3-pyridinemethanamine]
EC50 [1]: 110 nM

EC50 [1, 9]: 900 nM
SMILES: Clc1ccc(CCN(Cc2cccnc2)C2=NCCS2)cc1 [N--(4,5-dihydro-2-thiazolyl)-N--[2-(4-chlorophenyl)ethyl]-3-pyridinemethanamine]

EC50 [1, 9]: 1950 nM
SMILES: CC1CSC(N(c2ccc(Cl)cc2)C(C)c2cccnc2)=N1 (stereo not drawn) [N--(4-chlorophenyl)-N--(4,5-dihydro-4-methyl-2-thiazolyl)-α-methyl-3-pyridinemethanamine]

SMILES: Clc1ccc(N(Cc2cncnc2)C2=NCCS2)cc1 [N--(4-chlorophenyl)-N--(4,5-dihydro-2-thiazolyl)-5-pyrimidinemethanamine]
EC50 [1]: 610 nM

SMILES: Clc1ccc(N(Cc2cccnc2)C2=NCCS2)cc1 [N--(4-chlorophenyl)-N--(4,5-dihydro-2-thiazolyl)-3-pyridinemethanamine]
EC50 [1]: 68 nM | Mean Uterine Weight ([2]; Test I, 30 ppm in feed (approx. 3 mg/kg/day), value marked + (p < 0.05 vs testosterone-treated control, 211.5)): 141.5 mg | Mean Uterine Weight ([2]; Test I, 300 ppm in feed (approx. 30 mg/kg/day), value marked + (p < 0.05 vs testosterone-treated control, 211.5)): 136.0 mg | Mean Steroid Concentration, estrone ([3]; Test I, 30 ppm in feed (approx. 3 mg/kg/day), testosterone-treated control 0.10): 0.31 femtomoles per milligram of protein | Mean Steroid Concentration, estriol ([3]; Test I, 30 ppm in feed (approx. 3 mg/kg/day), testosterone-treated control 0.24): 0.27 femtomoles per milligram of protein | Mean Steroid Concentration, estradiol ([3]; Test I, 30 ppm in feed (approx. 3 mg/kg/day), testosterone-treated control 1.43): 1.46 femtomoles per milligram of protein | Mean Steroid Concentration, estrone ([3]; Test I, 300 ppm in feed (approx. 30 mg/kg/day), testosterone-treated control 0.10): 0.09 femtomoles per milligram of protein | Mean Steroid Concentration, estriol ([3]; Test I, 300 ppm in feed (approx. 30 mg/kg/day), testosterone-treated control 0.24): 0.46 femtomoles per milligram of protein | Mean Steroid Concentration, estradiol ([3]; Test I, 300 ppm in feed (approx. 30 mg/kg/day), testosterone-treated control 1.43): 1.42 femtomoles per milligram of protein | Mean Tumor Area, Start ([4]; baseline, control 62.8): 61.4 mm^2 | Mean Tumor Area, Finish ([4]; control 1087.0): 464.0 mm^2

EC50 [1, 9]: 2350 nM
SMILES: CC(c1cccnc1)N(C1=NCCS1)c1ccc(Cl)cc1 (stereo not drawn) [N--(4-chlorophenyl)-N--(4,5-dihydro-2-thiazolyl)-α-methyl-3-pyridinemethanamine]

SMILES: Clc1ccc(N(Cc2cccnc2)C2=NCCO2)cc1 [N--(4-chlorophenyl)-N--(4,5-dihydro-2-oxazolyl)-3-pyridinemethanamine]
EC50 [1]: 80 nM

SMILES: CC(c1ccc(F)cc1)N(C1=NCCS1)C(C)c1cccnc1 (stereo not drawn) [N--(4,5-dihydro-2-thiazolyl)-N--[1-(4-fluorophenyl)ethyl]-α-methyl-3-pyridinemethanamine]
EC50 [1]: 3300 nM
